Reference: PMC11956017, “Design of Benzyl-triazolopyrimidine-Based NADPH Oxidase Inhibitors Leads to the Discovery of a Potent Dual Covalent NOX2/MAOB Inhibitor” (Journal of Medicinal Chemistry, 2025)
“Also recorded” adds a separate entry of the source.

Assays:
[1] = target: T1, NOX2 (Homo sapiens, UniProt P04839); assay: Human NOX2 isolated membranes, cytochrome c assay; type: biochemical; design: NOX2 was expressed as native protein in X-CGD PLB-985 cells transduced with the RD114 pseudotyped MFGS-NOX2 vector; expressed in transfected cells; host or cells: X-CGD PLB-985 cells transduced with MFGS-NOX2; isolated membranes; Cytosolic proteins made in E. coli; conditions: membrane-embedded NOX2; n = 1; read-out: IC50 NOX2 measured with the cytochrome c assay
Experimental: The strong activity of NOX2 enabled the use of the peroxide-independent MCLA and cytochrome c assays that probe superoxide formation. IC50 determinations were performed as described, with the same aforementioned modifications for covalent inhibition. Briefly, 20 μg of NOX2-p22^phox membranes was added to a reaction mix with a 65 mM sodium phosphate buffer (pH 7.0), 0.5 μM FAD, 130 μM LiDS, 160 nM p67^phox, p47^phox, Rac1 Q61L, and 1 μM MCLA or 200 μM bovine cytochrome c. The estimated final protein concentration based on the heme’s absorbance was 60 nM. Compounds were incubated for 1 h at 25 °C, at varying concentrations. The reaction started by adding 240 μM NADPH, and measurements were taken by using a GloMax plate reader (Promega; MCLA) or a Cary 100 UV–vis spectrophotometer (Varian; cytochrome c).

[2] = target: T1, NOX2; assay: NOX2 inhibition upon preactivation with cytosolic partners, washout, cytochrome c reduction; type: biochemical; design: NOX2 was expressed as native protein in X-CGD PLB-985 cells transduced with the RD114 pseudotyped MFGS-NOX2 vector; expressed in transfected cells; host or cells: X-CGD PLB-985 cells transduced with MFGS-NOX2; isolated membranes; Cytosolic proteins made in E. coli; conditions: 1 mM compound, 60 min, with or without p47phox/p67phox/Rac1, washout, fresh activators
Experimental: More in detail, two different mixtures were prepared simultaneously: a “nonpreactivated NOX2” mixture in the absence of cytosolic partners and a “preactivated NOX2” mixture in the presence of cytosolic partners. NOX2-containing membranes (3.9 mg/mL) were added to a sodium phosphate buffer (65 mM, pH 7.0), 50 μM FAD, and 130 μM LiDS, in the presence or absence of 160 nM p67^phox, p47^phox, and Rac1 Q61L in a final volume of 20 μL. Both mixes were incubated with DMSO (vehicle) or 1 mM of the tested compound for 60 min at 25 °C. The mixtures were then centrifuged (20,000g for 10 min) at 4 °C to gently remove the excess of the inhibitor and, if present, of the activators. The supernatants were discarded to eliminate the excess of the nonbound compound, and the pellets were resuspended in the same volume of the fresh buffer. Subsequently, the resuspended pellets were loaded into a spectrophotometric cuvette at a final concentration of 0.39 mg/mL and incubated with fresh cytosolic activators (160 nM), LiDS (130 μM), and cytochrome c (200 μM) for 10 min at 25 °C. […] The reaction was then initiated with 240 μM NADPH and monitored at 550 nm with a Cary 100 UV–vis spectrophotometer (Varian).

[3] = tested on: BV2 cells; assay: qRT-PCR of iNOS, IL-1β and IL-6 transcripts in BV2 cells; type: cell-based, murine
Experimental: BV2 murine microglial cells were cultured in DMEM supplemented with 10% heat-inactivated FBS, 100 IU/mL penicillin G, […] streptomycin, and […] amphotericin B and grown at 37 °C in 5% CO2 and a humidified atmosphere. […]
BV2 cells were lysed in a Trizol reagent for isolation of RNA. A reverse transcription reaction was performed in a thermocycler (MJMini personal thermal cycler; Biorad) using an IScript Reverse Transcription Supermix (Biorad) according to the manufacturer’s protocol, under the following conditions: incubation at 25 ° C for 5 min, reverse transcription at 42 ° C for 30 min, and inactivation at 85 ° C for 5 min. Real-time PCR (rtPCR) was carried out in an I-Cycler IQ Multicolor rtPCR detection system (Biorad) using a SsoFast EvaGreen Supermix (Biorad) according to the manufacturer’s instructions. The PCR protocol consisted of 40 cycles of denaturation at 95 ° C for 30 s and annealing/extension at 60 ° C for 30 s. For quantification analysis, the comparative threshold cycle (Ct) method was used. The Ct values from each gene were normalized to the Ct value of GAPDH in the same RNA samples. Relative quantification was performed using the 2^–ΔΔCt method (Schmittgen and Livak, 2008) and expressed as a fold change in arbitrary values. Primers used are as follows: • iNOS fw: […]; rev: […]. • IL-1β fw: […]; rev: […]. • IL-6 fw: […]; rev: […].

[4] = tested on: BV2 cells; assay: ROS detection with CellROX Deep Red in BV2 cells; type: cell-based, murine; conditions: 10 μM, LPS/IFN-γ stimulation, 48 h
Experimental: BV2 murine microglial cells were cultured in DMEM supplemented with 10% heat-inactivated FBS, 100 IU/mL penicillin G, […] streptomycin, and […] amphotericin B and grown at 37 °C in 5% CO2 and a humidified atmosphere. […] After 30 min, LPS 100 ng/mL and IFN-γ 20 ng/mL were added to the medium for an additional 48 h. After treatment, BV2 cells were incubated with a CellROX Deep Red reagent (cat. no. C10422) at 5 μM and incubated for 30 min at 37 °C as indicated by the manufacturer protocol. ROS levels were measured by a spectrofluorometer, taking as 100% the median fluorescence intensity of cells treated with the vehicle.

[5] = 10 μM, LPS/IFN-γ, 48 h compound treatment

SMILES: C#CCN(C)Cc1ccc(Cn2nnc3c(Sc4nc5ccccc5o4)ncnc32)cc1 [Compound 9a, N-(4-((7-(Benzo[d]oxazol-2-ylthio)-3H-[1,2,3]triazolo[4,5-d]pyrimidin-3-yl)methyl)benzyl)-N-methylprop-2-yn-1-amine]
- IC50 [1]: 770 nM
- retention of inhibitor by NOX2 after washout, resting vs activated state [2]: retained only by the activated
- decrease in IL-1β mRNA level [3, 5]: 4 fold
- decrease in IL-6 mRNA level [3, 5]: 4 fold
- decrease in iNOS mRNA level [3, 5]: over 10 fold
- effects on iNOS, IL-1β and IL-6 mRNA without inhibitor pretreatment ([3]; cells pre-stimulated with LPS/IFN-γ for 24h, then 10 µM compound for 24 h): negligible
- ROS levels in BV2 cells [4]: decrease the ROS levels; also recorded: strongest ROS-dumping activity
